The source of these data is ChEMBL document CHEMBL1201862, “PubChem BioAssay data set” (2004).

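Test compounds were applied to cells in 96-well plates for 48 hours at 5 doses. Abbreviation: GI50, concentration required for 50% inhibition of growth.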 Calls of active or inactive are those of the source. No stated cut-off is given here; in the data, active = GI50 up to about 1.1 µM and inactive = higher.

Some test systems named below: PC-3; MDA-MB-435; OVCAR-4; MDA-MB-231; SR; MCF7; SN12C; DU-145; NCI-H522; NCI/ADR-RES; SK-MEL-2; EKVX; NCI-H23; NCI-H226; A498; HCT-15; COLO 205; LOX IMVI; SW-620.
Common to all, as to experiment: NCI-60 cell line screen, 48 h

As to `CC(C)(C)OC(=O)NC(Cc1ccc(OC(C)(C)C)cc1)C(=O)N[C@H]1CCC[C@H]1C(=O)NC(Cc1ccccc1)C(=O)N1CCCC1C(N)=O` (stereo not given in full), the GI50 with PC-3, in the test with MDA-MB-435, in the test on OVCAR-4, in the test on MDA-MB-231, in the test with SR and with MCF7 was > 100 µM (inactive) each time. For the same molecule, the GI50 with SN12C, in the test with DU-145, in the test with NCI-H522, in the test on NCI/ADR-RES, with SK-MEL-2 and in the test with EKVX was > 100 µM (inactive) in each case. Moreover, the GI50 in the test on NCI-H23 was > 100 µM (inactive); in the test on NCI-H226, > 100 µM (inactive); in the test with A498 it was > 100 µM (inactive); with HCT-15 it was > 100 µM; with COLO 205, > 100 µM (inactive); in the test on LOX IMVI it was > 100 µM (inactive). In addition, in the test with SW-620, the GI50 was > 100 µM (inactive).
With `Clc1ccc(/C=N/c2ccc3c(c2)Cc2ccccc2-3)c(Cl)c1`, the GI50 in the test with PC-3 is > 100 µM (inactive); with MDA-MB-435, 50.7 µM (inactive); in the test with OVCAR-4, > 100 µM (inactive); with MDA-MB-231 it was > 100 µM (inactive); in the test on SR, 45.9 µM (inactive); with MCF7 it was > 100 µM (inactive). The GI50 with SN12C, with DU-145, in the test on NCI-H522, with NCI/ADR-RES, in the test with SK-MEL-2 and in the test with EKVX was > 100 µM (inactive) throughout. Also, the GI50 in the test with NCI-H23 is > 100 µM (inactive); in the test with NCI-H226 it was > 100 µM (inactive); in the test with A498 it was > 100 µM (inactive); in the test on HCT-15, 40.6 µM; in the test with COLO 205 it was > 100 µM (inactive); in the test on LOX IMVI, 92.9 µM (inactive). Further, the GI50 in the test on SW-620 is > 100 µM (inactive).
Take `C/C(=C\c1ccccc1)C(=O)NCc1ccc(C(=O)NCCc2c[nH]c3ccccc23)cc1`: the GI50 with PC-3 was 54.6 µM (inactive); with MDA-MB-435, 78 µM (inactive); with OVCAR-4, 86.5 µM (inactive); with MDA-MB-231 it was > 100 µM (inactive); in the test with SR, > 100 µM (inactive); with MCF7 it was 24.3 µM (inactive). Further, the GI50 is > 100 µM (inactive) in the test on SN12C; > 100 µM (inactive) with DU-145; 69 µM (inactive) with NCI-H522; > 100 µM (inactive) in the test with NCI/ADR-RES; > 100 µM (inactive) in the test on SK-MEL-2; 48.9 µM (inactive) in the test on EKVX. Further, the GI50 in the test on NCI-H23 was 80.4 µM (inactive); in the test on NCI-H226, > 100 µM (inactive); in the test on A498, 22 µM (inactive); in the test with HCT-15 it was > 100 µM; in the test on COLO 205, 37.6 µM (inactive); in the test on LOX IMVI, 61.1 µM (inactive). The GI50 in the test with SW-620 was > 100 µM (inactive).
Turning to `CC1(C)OC(=O)CC12CCN(Cc1ccccc1)CC2`, the GI50 in the test on PC-3, in the test with MDA-MB-435, in the test on OVCAR-4, in the test on MDA-MB-231, in the test with SR and in the test on MCF7 was > 100 µM (inactive) each time. The GI50 with SN12C, with DU-145, in the test on NCI-H522, in the test with NCI/ADR-RES, in the test with SK-MEL-2 and in the test on EKVX was > 100 µM (inactive) in each case. Also, the GI50 is > 100 µM (inactive) in the test with NCI-H23; > 100 µM (inactive) with NCI-H226; > 100 µM (inactive) with A498; > 100 µM in the test with HCT-15; > 100 µM (inactive) with COLO 205; > 100 µM (inactive) with LOX IMVI.
